The source of these data is patent US20230348453A1, “HALOGENATED-HETEROARYL AND OTHER HETEROCYCLIC KINASE INHIBITORS, AND USES THEREOF” (iOmx Therapeutics AG, priority 2020, published 2023).

Like-named read-outs stand apart in the source and are kept apart here. Where only a bound is given, the exact number is not on record here.

Assay [1] concerns the target T1, SIK3 (Homo sapiens (Human), UniProt Q9Y2K2). The assay can be described thus: SIK3 kinase inhibition (IC50).
Assay [2] deals with T1, SIK3. As to conditions: read-out: SIK3 IC50.
In a further assay the target is SIK2 (Homo sapiens (Human), UniProt Q9H0K1). The experiment in a line: SIK2 kinase inhibition (IC50).
Setting [3] is: read-out: Kinase: IC50 (nM) SIK2.

`Cc1nc(Nc2ncc(C(=O)Nc3c(CF)csc3Cl)s2)cc(N2CCN(C)C(C)C2)n1` (single isomer, unassigned) [Compound E10-Ent-II, N-(2-chloro-4-(fluoromethyl)thiophen-3-yl)-2-((6-(3,4-dimethylpiperazin-1-yl)-2-methylpyrimidin-4-yl)amino)thiazole-5-carboxamide]: the “IC50 against SIK3 relative to IC50 of E10-Ent-I” value at SIK3 [1] (separated enantiomers) is “approximately half”.

Broadly, the IC50 is the concentration that inhibits the measured activity by half. As to `Cc1nc(Nc2ncc(C(=O)Nc3c(Br)ccnc3C)s2)cc(N2CCN(CCO)CC2)n1` [Compound C3, N-(4-bromo-2-methylpyridin-3-yl)-2-((6-(4-(2-hydroxyethyl)piperazin-1-yl)-2-methylpyrimidin-4-yl)amino)thiazole-5-carboxamide], on SIK3 [2], the IC50 is 2780 nM.

Take `CC(=O)N1CCN(c2cc(Nc3ncc(C(=O)Nc4c(C)csc4Cl)s3)nc(C)n2)CC1` [Compound D8]: the IC50 on SIK3 [2] is roughly 150 nM.

Regarding `Cc1nc(Nc2ncc(C(=O)Nc3c(Cl)csc3F)s2)cc(N2CCN(CCO)CC2)n1` [Compound E2, N-(4-chloro-2-fluorothiophen-3-yl)-2-((6-(4-(2-hydroxyethyl)piperazin-1-yl)-2-methylpyrimidin-4-yl)amino)thiazole-5-carboxamide], the IC50 is less than 10 nM at SIK2 (setting [3]) and 50 to 100 nM on SIK3 [1].

In the case of `Cc1nc(Nc2ncc(C(=O)Nc3c(C(F)(F)F)csc3Cl)s2)cc(N2CCN(CCO)CC2)n1` [Compound E5, N-(2-chloro-4-(trifluoromethyl)thiophen-3-yl)-2-((6-(4-(2-hydroxyethyl)piperazin-1-yl)-2-methylpyrimidin-4-yl)amino)thiazole-5-carboxamide], the values for the IC50 against SIK2 and at SIK3 [1] were 20 to 50 nM and 50 to 100 nM, respectively.

In the case of `Cc1nc(Nc2ncc(C(=O)Nc3c(CF)csc3Cl)s2)cc(N2CCNC(=O)C2)n1` [Compound E12, N-(2-chloro-4-(fluoromethyl)thiophen-3-yl)-2-((2-methyl-6-(3-oxopiperazin-1-yl)pyrimidin-4-yl)amino)thiazole-5-carboxamide], the IC50 at SIK2 (setting [3]) was less than 20 nM; against SIK3 [1], 50 to 100 nM.

On to `Cc1nc(Nc2ncc(C(=O)Nc3c(C(F)F)csc3Cl)s2)cc(N2CCN(C)CC2)n1` [Compound E13, N-(2-chloro-4-(difluoromethyl)thiophen-3-yl)-2-((2-methyl-6-(4-methylpiperazin-1-yl)pyrimidin-4-yl)amino)thiazole-5-carboxamide], for which the IC50 on SIK2 (setting [3]) is less than 10 nM; at SIK3 [1] (read-out: Kinase: IC50 (nM) SIK3), less than 20 nM.

For `Cc1nc(Nc2ncc(C(=O)Nc3c(Cl)csc3F)s2)cc(N2CCN(C)CC2)n1` [Compound E15, N-(4-chloro-2-fluorothiophen-3-yl)-2-((2-methyl-6-(4-methylpiperazin-1-yl)pyrimidin-4-yl)amino)thiazole-5-carboxamide], the IC50 on SIK2 (setting [3]) was less than 20 nM; at SIK3 [1] it was 20 to 50 nM.
